The target in experiment [1] is GSK3α (GST-full length GSK3α) (Homo sapiens (Human), UniProt P49840). The experiment is described as follows: GSK3α TR-FRET kinase assay. It is filed as biochemical. On the procedure: (§1) TR-FRET Assay: The assay was performed in a white, 384 well, low volume, flat bottom plate (Grenier). After a 30 minute preincubation in assay buffer with the indicated concentration of compound, the kinase activity was initiated by the addition of the substrates. 1 nM GSK3α (GST-full length GSK3α [SignalChem G08-10G]) or 1 nM GSK3b (GST-full length GSK3b: [SignalChem G08-9G]) were then incubated at ambient temperature for 100 minutes in 10 μL of 50 mM Tris, pH 7.5, 20 mM MgCl2, 0.05 mM DTT, 100 μg/mL BSA and 1% DMSO, with 200 nM biotinylated peptide substrate (biotinylated and S645 phosphorylated glycogen synthase 631-650) and either 4 μM ATP (GSK3α, Table 16) or 2 μM ATP (GSK3b, Table 16) or 1 mM ATP (Table 17). The kinase activity was quenched with 2 μL of 250 mM EDTA. A 10 μL volume of 40 nM Strepavidin-d2, 2 nM Tb^2+-pSer641 antibody in TR-FRET Detection Buffer (Invitrogen) was then added. After 60 min at room temperature the plate was read on Envision plate reader using Ex: 340 nm, Em: 615 nm and […]. The normalized 665/615 Signal ratio versus log compound concentration was analyzed by XLFIT to yield IC50 values.
Sequence of GSK3α (GST-full length GSK3α) (P49840 whole entry): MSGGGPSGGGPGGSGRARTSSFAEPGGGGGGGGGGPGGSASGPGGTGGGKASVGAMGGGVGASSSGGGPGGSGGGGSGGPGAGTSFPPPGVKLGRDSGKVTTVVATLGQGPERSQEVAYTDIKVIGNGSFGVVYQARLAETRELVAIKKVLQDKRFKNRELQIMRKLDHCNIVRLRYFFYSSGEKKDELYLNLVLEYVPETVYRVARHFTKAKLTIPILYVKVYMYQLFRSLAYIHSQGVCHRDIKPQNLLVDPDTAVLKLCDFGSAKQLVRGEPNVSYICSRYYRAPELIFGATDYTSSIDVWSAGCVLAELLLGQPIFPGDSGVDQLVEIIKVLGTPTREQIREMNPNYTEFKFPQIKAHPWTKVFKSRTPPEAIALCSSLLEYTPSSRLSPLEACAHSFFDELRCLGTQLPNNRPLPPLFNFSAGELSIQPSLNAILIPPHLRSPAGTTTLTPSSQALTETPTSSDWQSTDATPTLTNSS
(In general: TR-FRET usually uses a lanthanide donor and a delayed reading to cut background.)

The target of experiment [2] is GSK3b (GST-full length GSK3b) (Homo sapiens (Human), UniProt P49841). Briefly: GSK3b TR-FRET kinase assay. The class given is biochemical. How it is done: as §1
Sequence of GSK3b (GST-full length GSK3b) (P49841 whole entry): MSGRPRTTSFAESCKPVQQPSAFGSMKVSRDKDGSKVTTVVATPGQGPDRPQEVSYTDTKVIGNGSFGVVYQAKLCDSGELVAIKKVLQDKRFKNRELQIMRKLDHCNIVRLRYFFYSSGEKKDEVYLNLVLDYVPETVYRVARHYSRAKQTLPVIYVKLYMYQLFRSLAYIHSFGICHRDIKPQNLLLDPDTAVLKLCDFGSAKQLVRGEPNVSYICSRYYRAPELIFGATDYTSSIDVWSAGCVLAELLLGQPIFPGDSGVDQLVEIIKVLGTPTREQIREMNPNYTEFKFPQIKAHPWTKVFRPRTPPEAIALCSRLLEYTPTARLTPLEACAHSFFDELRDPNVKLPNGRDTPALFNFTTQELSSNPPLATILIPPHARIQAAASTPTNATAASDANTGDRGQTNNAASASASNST
Where [3] appears, read: 1 nM GSK3α, 4 μM ATP, 30 minute preincubation, geometric mean, read-out: GSK3-A TR-FRET BIOCHEMICAL (TR-FRET), GMean, IC50.
[4] abbreviates: 1 nM GSK3b, 2 μM ATP, 30 minute preincubation, geometric mean, read-out: GSK3-B TR-FRET BIOCHEMICAL (TR-FRET), GMean, IC50.
Setting [5] is: read-out: GSK3-A (TR-FRET 1 mM ATP), GMean, IC50, 1 mM ATP, geometric mean.
Where [6] appears, read: read-out: GSK3-B (TR-FRET 1 mM ATP), GMean, IC50, 1 mM ATP, geometric mean.

Read-outs that look alike come from different tables or passages of the source.

As for `C[C@]1(c2ccccc2)C2=C(CC3(CCCC3)CC2=O)Nc2n[nH]cc21` [Compound 792339], the figures for the IC50 in experiment [1] (setting [3]) and in experiment [2] (setting [4]) were greater than 1.7 µM and greater than 5 µM, respectively.
For `CC[C@@]1(c2ccccc2)C2=C(CC(C)(C)CC2=O)Nc2n[nH]c(Br)c21` [Compound 792340], the IC50 in experiment [1] (setting [3]) is no more than 0.1 µM; in experiment [1] (GSK3-A (TR-FRET 1 mM ATP), GMean, IC50, 1 mM ATP, geometric mean), 0.1 to 1 µM; in experiment [2] (setting [4]), no more than 0.1 µM; in experiment [2] (GSK3-B (TR-FRET 1 mM ATP), GMean, IC50, 1 mM ATP, geometric mean), 0.1 to 1 µM.
On to `CC[C@]1(c2ccccc2)C2=C(CC(C)(C)CC2=O)Nc2n[nH]c(Br)c21` [Compound 792341], for which the IC50 in experiment [1] (setting [3]) and in experiment [2] (setting [4]) was 0.1 to 1 µM throughout.
As for `COc1cccc(C2(C)C3=C(CC(C)(C)CC3=O)Nc3n[nH]cc32)c1` (stereo not shown) [Compound 792342], the IC50 in experiment [1] (setting [3]) and in experiment [2] (setting [4]) was 0.1 to 1 µM in each case.
For `CCC1(c2cccc(Cl)c2)C2=C(CC(C)(C)CC2=O)Nc2n[nH]c(C(F)(F)F)c21` (stereo not shown) [Compound 801309], the IC50 in experiment [1] (setting [3]) was 1 to 5 µM; in experiment [2] (setting [4]) it was greater than 1.67 µM.
With `CC[C@@]1(c2cccc(C(F)(F)F)c2)C2=C(CC3(CCCC3)CC2=O)Nc2n[nH]cc21` [Compound 801311], the IC50 in experiment [1] (setting [3]) is no more than 0.1 µM; in experiment [1] (setting [5]), no more than 0.1 µM; in experiment [2] (setting [4]), no more than 0.1 µM; in experiment [2] (setting [6]), 0.1 to 1 µM.
Consider `CCC1(c2cccc(Cl)c2)C2=C(CC(C)(C)CC2=O)Nc2n[nH]c(Br)c21` (stereo not shown) [Compound 801314], for which the IC50 was no more than 0.1 µM in experiment [1] (setting [5]) and 0.1 to 1 µM in experiment [2] (setting [6]).
As for `CCC1(c2cccc(C3CC3)c2)C2=C(CC(C)(C)CC2=O)Nc2n[nH]cc21` (stereo not shown) [Compound 801316], the IC50 in experiment [1] (setting [3]) and in experiment [2] (setting [4]) was no more than 0.1 µM in each case.
Take `CCC1(c2cccc(N3CCCC3)c2)C2=C(CC(C)(C)CC2=O)Nc2n[nH]cc21` (stereo not shown) [Compound 801317]: the IC50 in experiment [1] (setting [3]) and in experiment [2] (setting [4]) was 0.1 to 1 µM each time.
With `CCC1(c2cccc(N(C)C(C)=O)c2)C2=C(CC(C)(C)CC2=O)Nc2n[nH]cc21` (stereo not shown) [Compound 801319], the IC50 in experiment [1] (setting [3]) and in experiment [2] (setting [4]) was no more than 0.1 µM in each case.
As to `CCC1(c2cccc(N3CCCCC3)c2)C2=C(CC(C)(C)CC2=O)Nc2n[nH]cc21` (stereo not shown) [Compound 801320], the IC50 in experiment [1] (setting [3]) and in experiment [2] (setting [4]) was 0.1 to 1 µM in each case.
Turning to `CCC1(c2cccc(C(C)C)c2)C2=C(CC(C)(C)CC2=O)Nc2n[nH]cc21` (stereo not shown) [Compound 801322], the IC50 is no more than 0.1 µM in experiment [1] (setting [3]) and 0.1 to 1 µM in experiment [2] (setting [4]).
The matching figures for `CCC1(c2cccc(Br)c2)C2=C(CC(C)(C)CC2=O)Nc2n[nH]c(C(F)(F)F)c21` (stereo not shown) [Compound 801324]: no more than 0.1 µM and no more than 0.1 µM.
The matching figures for `CC(C)(C)Cc1[nH]nc2c1C1(CCc3cccc(F)c31)C1=C(CC(C)(C)CC1=O)N2` (stereo not shown) [Compound 801351]: greater than 1.67 µM and 0.1 to 1 µM.
Taken in the same sequence, the figures for `CC1(C)CC(=O)C2=C(C1)Nc1n[nH]cc1C21CCc2c(F)cccc21` (stereo not shown) [Compound 801357] were 0.1 to 1 µM and greater than 1.67 µM.
Regarding `CC1(C)CC(=O)C2=C(C1)Nc1n[nH]c(Br)c1C21CCc2c(F)cccc21` (stereo not shown) [Compound 801358], the IC50 in experiment [1] (setting [3]) and in experiment [2] (setting [4]) was no more than 0.1 µM throughout.
Take `CC1(C)CC(=O)C2=C(C1)Nc1n[nH]cc1[C@@]2(C)c1cccc(-c2ccccc2)c1` [Compound 801366]: the IC50 in experiment [1] (setting [3]) and in experiment [2] (setting [4]) was greater than 5 µM each time.
Turning to `CC1(C)CC(=O)C2=C(C1)Nc1n[nH]cc1[C@]2(C)c1cccc(-c2ccccc2)c1` [Compound 801367], the figures for the IC50 in experiment [1] (setting [3]) and in experiment [2] (setting [4]) were no more than 0.1 µM and 0.1 to 1 µM, respectively.
The matching figures for `CCC1(c2cccc(-c3ccccc3)c2)C2=C(CC(C)(C)CC2=O)Nc2n[nH]cc21` (stereo not shown) [Compound 801369]: greater than 5 µM and greater than 5 µM.
As to `CCC1(c2ccccc2)C2=C(CSCC2=O)Nc2n[nH]cc21` (stereo not shown) [Compound 801406], the IC50 in experiment [1] (1 nM GSK3α, 4 μM ATP, 30 minute preincubation, read-out: GSK3-A TR-FRET BIOCHEMICAL (TR-FRET), IC50) was 1 to 5 µM; in experiment [2] (1 nM GSK3b, 2 μM ATP, 30 minute preincubation, read-out: GSK3-B TR-FRET BIOCHEMICAL (TR-FRET), IC50), greater than 5 µM.
Regarding `CC[C@@]1(c2cccc(-c3ccncc3)c2)C2=C(CC(C)(C)CC2=O)Nc2n[nH]cc21` [Compound 801412], the IC50 in experiment [1] (setting [3]) and in experiment [2] (setting [4]) was greater than 5 µM in each case.
Consider `CCC1(c2cccc(-c3ccncc3)c2)C2=C(CC(C)(C)CC2=O)Nc2n[nH]cc21` (stereo not shown) [Compound 801413], for which the IC50 was no more than 0.1 µM in experiment [1] (setting [3]), 0.1 to 1 µM in experiment [1] (setting [5]), no more than 0.1 µM in experiment [2] (setting [4]) and 1 to 5 µM in experiment [2] (setting [6]).
Consider `CCC1(c2cccc(-c3cnn(C)c3)c2)C2=C(CC(C)(C)CC2=O)Nc2n[nH]c(C(F)(F)F)c21` (stereo not shown) [Compound 801445], for which the IC50 in experiment [1] (setting [3]) and in experiment [2] (setting [4]) was no more than 0.1 µM each time.
As for `CCC1(c2cccc(OCCOC)c2)C2=C(CC(C)(C)CC2=O)Nc2n[nH]cc21` (stereo not shown) [Compound 801446], the IC50 in experiment [1] (setting [3]) is 0.1 to 1 µM; in experiment [2] (setting [4]) it was greater than 1.67 µM.
On to `CCC1(c2cccc(OC)c2)C2=C(CC(C)(C)CC2=O)Nc2n[nH]cc21` (stereo not shown) [Compound 801447], for which the IC50 in experiment [1] (setting [3]) was in the range of 0.1 to 1 µM; in experiment [2] (setting [4]) it was 1 to 5 µM.
Taken in the same sequence, the figures for `CCC1(c2cccc(OC(C)C)c2)C2=C(CC(C)(C)CC2=O)Nc2n[nH]cc21` (stereo not shown) [Compound 801448] were no more than 0.1 µM and 0.1 to 1 µM.
On to `CCC1(c2cccc(C(F)(F)F)c2)C2=C(CC(C)(C)CC2=O)Nc2n[nH]c(Br)c21` (stereo not shown) [Compound 802358], for which the IC50 in experiment [1] (setting [3]) and in experiment [2] (setting [4]) was no more than 0.1 µM throughout.
On to `CC1(C)CC(=O)C2=C(C1)Nc1n[nH]c(C(F)(F)F)c1C21CCc2c(F)cccc21` (stereo not shown) [Compound 806568], for which the IC50 is 1 to 5 µM in experiment [1] (setting [3]) and 0.1 to 1 µM in experiment [2] (setting [4]).
Taken in the same sequence, the figures for `Cc1cccc2c1CCC21C2=C(CC(C)(C)CC2=O)Nc2n[nH]cc21` (stereo not shown) [Compound 806603] were no more than 0.1 µM and 0.1 to 1 µM.
Taken in the same sequence, the figures for `CCC1(c2cccc(N3CCNCC3)c2)C2=C(CC(C)(C)CC2=O)Nc2n[nH]cc21` (stereo not shown) [Compound 806604] were greater than 1.67 µM and greater than 5 µM.
In the case of `CC1(C)CC(=O)C2=C(C1)Nc1n[nH]cc1C2(C)c1cc(Cl)ccc1Cl` (stereo not shown) [Compound 806605], the IC50 in experiment [1] (setting [3]) is 1 to 5 µM; in experiment [2] (setting [4]), greater than 5 µM.
Taken in the same sequence, the figures for `CC[C@@]1(c2ccccc2)C2=C(C[C@@H](C(F)(F)F)CC2=O)Nc2n[nH]cc21` [Compound 806607] were greater than 5 µM and greater than 5 µM.
`CC[C@]1(c2ccccc2)C2=C(C[C@@H](C(F)(F)F)CC2=O)Nc2n[nH]cc21` [Compound 806608]: the IC50 is 0.1 to 1 µM in experiment [1] (setting [3]) and greater than 1.67 µM in experiment [2] (setting [4]).
With `CC[C@]1(c2ccccc2)C2=C(C[C@H](C(F)(F)F)CC2=O)Nc2n[nH]cc21` [Compound 806609], the figures for the IC50 in experiment [1] (setting [3]) and in experiment [2] (setting [4]) were 0.1 to 1 µM and greater than 1.67 µM, respectively.
The matching figures for `CC[C@@]1(c2ccccc2)C2=C(C[C@H](C(F)(F)F)CC2=O)Nc2n[nH]cc21` [Compound 806611]: greater than 5 µM and greater than 5 µM.
The matching figures for `CC1(C)CC(=O)C2=C(C1)Nc1n[nH]cc1[C@@]21CCc2c(F)cccc21` [Compound 806632]: greater than 1.67 µM and greater than 5 µM.
Taken in the same sequence, the figures for `CC1(C)CC(=O)C2=C(C1)Nc1n[nH]cc1[C@]21CCc2c(F)cccc21` [Compound 806633] were no more than 0.1 µM and 0.1 to 1 µM.
For `CCC1(c2cccc(-c3ccncn3)c2)C2=C(CC(C)(C)CC2=O)Nc2n[nH]cc21` (stereo not shown) [Compound 806637], the IC50 in experiment [1] (setting [3]) is no more than 0.1 µM; in experiment [2] (setting [4]) it was 0.1 to 1 µM.

The values above are taken from patent US20250313563A1, “GLYCOGEN SYNTHASE KINASE 3 INHIBITORS AND USES THEREOF” (The Broad Institute, Inc., priority 2022, published 2025).
